The series has as its system CCRIS mutagenicity, Ames/micronucleus/aberration tests. The experiment in a line: CCRIS mutagenicity studies.

Calls of active or inactive are those of the source. How the calls were made is not given here.

As for `O=C(O)O`, the mutagenic call is, setting by setting: (Test System: AMES SALMONELLA TYPHIMURIUM, Strain/Indicator: TA97, Metabolic Activation: NONE, Method: PREINCUBATION) “inactive; negative”; (Test System: AMES SALMONELLA TYPHIMURIUM, Strain/Indicator: TA97, Metabolic Activation: RAT, LIVER, S-9, AROCLOR 1254, Method: PREINCUBATION) “inactive; negative”; (Test System: AMES SALMONELLA TYPHIMURIUM, Strain/Indicator: TA98, Metabolic Activation: HAMSTER, LIVER, S-9, AROCLOR 1254, Method: STANDARD PLATE) “inactive; negative”; (Test System: AMES SALMONELLA TYPHIMURIUM, Strain/Indicator: TA98, Metabolic Activation: NONE, Method: STANDARD PLATE) “inactive; negative”; (Test System: AMES SALMONELLA TYPHIMURIUM, Strain/Indicator: TA98, Metabolic Activation: RAT, LIVER, S-9, AROCLOR 1254, Method: STANDARD PLATE) “inactive; negative”; (Test System: AMES SALMONELLA TYPHIMURIUM, Strain/Indicator: TA100, Metabolic Activation: HAMSTER, LIVER, S-9, AROCLOR 1254, Method: STANDARD PLATE) “inactive; negative”. The mutagenic call is, setting by setting: (Test System: AMES SALMONELLA TYPHIMURIUM, Strain/Indicator: TA100, Metabolic Activation: NONE, Method: STANDARD PLATE) “inactive; negative”; (Test System: AMES SALMONELLA TYPHIMURIUM, Strain/Indicator: TA100, Metabolic Activation: RAT, LIVER, S-9, AROCLOR 1254, Method: STANDARD PLATE) “inactive; negative”; (Test System: AMES SALMONELLA TYPHIMURIUM, Strain/Indicator: TA102, Metabolic Activation: NONE, Method: PREINCUBATION) “inactive; negative”; (Test System: AMES SALMONELLA TYPHIMURIUM, Strain/Indicator: TA102, Metabolic Activation: RAT, LIVER, S-9, AROCLOR 1254, Method: PREINCUBATION) “inactive; negative”; (Test System: AMES SALMONELLA TYPHIMURIUM, Strain/Indicator: TA1535, Metabolic Activation: HAMSTER, LIVER, S-9, AROCLOR 1254, Method: STANDARD PLATE) “inactive; negative”; (Test System: AMES SALMONELLA TYPHIMURIUM, Strain/Indicator: TA1535, Metabolic Activation: NONE, Method: STANDARD PLATE) “inactive; negative”. Besides, the mutagenic call is, setting by setting: (Test System: AMES SALMONELLA TYPHIMURIUM, Strain/Indicator: TA1535, Metabolic Activation: RAT, LIVER, S-9, AROCLOR 1254, Method: STANDARD PLATE) “inactive; negative”; (Test System: AMES SALMONELLA TYPHIMURIUM, Strain/Indicator: TA1537, Metabolic Activation: HAMSTER, LIVER, S-9, AROCLOR 1254, Method: STANDARD PLATE) “inactive; negative”; (Test System: AMES SALMONELLA TYPHIMURIUM, Strain/Indicator: TA1537, Metabolic Activation: NONE, Method: STANDARD PLATE) “inactive; negative”; (Test System: AMES SALMONELLA TYPHIMURIUM, Strain/Indicator: TA1537, Metabolic Activation: RAT, LIVER, S-9, AROCLOR 1254, Method: STANDARD PLATE) “inactive; negative”; (Test System: AMES SALMONELLA TYPHIMURIUM, Strain/Indicator: TA1538, Metabolic Activation: HAMSTER, LIVER, S-9, AROCLOR 1254, Method: STANDARD PLATE) “inactive; negative”; (Test System: AMES SALMONELLA TYPHIMURIUM, Strain/Indicator: TA1538, Metabolic Activation: NONE, Method: STANDARD PLATE) “inactive; negative”. Moreover, the mutagenic call was “inactive; negative” (Test System: AMES SALMONELLA TYPHIMURIUM, Strain/Indicator: TA1538, Metabolic Activation: RAT, LIVER, S-9, AROCLOR 1254, Method: STANDARD PLATE); “active; positive” (Test System: CHINESE HAMSTER V-79, Strain/Indicator: V-79/6-THIOGUANINE, Metabolic Activation: NONE); “inactive; negative” (Test System: CHINESE HAMSTER V-79, Strain/Indicator: V-79/6-THIOGUANINE, Metabolic Activation: S-9); “inactive; negative” (Test System: Mouse lymphoma, Strain/Indicator: L5178Y (tk+/tk-), Metabolic Activation: None, Method: Suspension/plate); “inactive; negative” (Test System: Mouse lymphoma, Strain/Indicator: L5178Y (tk+/tk-), Metabolic Activation: Rat, Liver, S-9, Aroclor 1254, Method: Suspension/plate).

Consider `COc1nsc2cc(N)ccc12`, for which, for the setting “Test System: AMES SALMONELLA TYPHIMURIUM, Strain/Indicator: TA98, Metabolic Activation: S-9, Method: STANDARD PLATE”, the mutagenic call is “active; positive”.

On to `CSC[C@H](NC(=O)C(C)(C)SC)C(=O)O`, for which the mutagenic call (Test System: AMES SALMONELLA TYPHIMURIUM, Strain/Indicator: TA98, Metabolic Activation: NONE, Method: PREINCUBATION) was “inactive; negative”; the mutagenic call (Test System: AMES SALMONELLA TYPHIMURIUM, Strain/Indicator: TA100, Metabolic Activation: NONE, Method: PREINCUBATION) is “inactive; negative”; the mutagenic call (Test System: AMES SALMONELLA TYPHIMURIUM, Strain/Indicator: TA1535, Metabolic Activation: NONE, Method: PREINCUBATION) was “inactive; negative”; the mutagenic call (Test System: AMES SALMONELLA TYPHIMURIUM, Strain/Indicator: TA1537, Metabolic Activation: NONE, Method: PREINCUBATION) is “inactive; negative”; the mutagenic call (Test System: AMES SALMONELLA TYPHIMURIUM, Strain/Indicator: TA1538, Metabolic Activation: NONE, Method: PREINCUBATION) is “inactive; negative”; the mutagenic call (Test System: E. COLI, Strain/Indicator: WP2, Metabolic Activation: NONE, Method: PREINCUBATION) was “inactive; negative”. For the same compound, the mutagenic call (Test System: E. COLI, Strain/Indicator: WP2 UVRA, Metabolic Activation: NONE, Method: PREINCUBATION) is “inactive; negative”.

Regarding `Cc1ccc2c(ccc3c4ccccc4ccc23)c1`, the mutagenic call is, setting by setting: (Test System: AMES SALMONELLA TYPHIMURIUM, Strain/Indicator: TA98, Metabolic Activation: RAT, LIVER, CYTOSOL, AROCLOR 1254, Method: STANDARD PLATE) “inactive; negative”; (Test System: AMES SALMONELLA TYPHIMURIUM, Strain/Indicator: TA98, Metabolic Activation: RAT, LIVER, MICROSOMES, AROCLOR 1254, Method: STANDARD PLATE) “inactive; negative”; (Test System: AMES SALMONELLA TYPHIMURIUM, Strain/Indicator: TA100, Metabolic Activation: RAT, LIVER, MICROSOMES, 2-METHYLCHRYSENE, Method: STANDARD PLATE) “inactive; negative”; (Test System: AMES SALMONELLA TYPHIMURIUM, Strain/Indicator: TA100, Metabolic Activation: RAT, LIVER, MICROSOMES, AROCLOR 1254, Method: STANDARD PLATE) “active; positive”; (Test System: AMES SALMONELLA TYPHIMURIUM, Strain/Indicator: TA100, Metabolic Activation: RAT, LIVER, MICROSOMES, Method: STANDARD PLATE) “inactive; negative”.

The values are drawn from PubChem BioAssay AID1259407 (Chemical Carcinogenesis Research Information System (CCRIS), 2018).
